Drawing on PubChem BioAssay (NCI), this text covers TGI and GI50 for 13 molecules.

Structures are written as SMILES.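 Assay format: 96-well plates, 48-hour exposure. GI50 marks 50% less growth. Definition used: TGI = concentration required for complete inhibition of growth.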

Test systems include A498 renal; MOLT-4 leukemia; NCI-H23 lung; OVCAR-4 ovarian; SK-MEL-2 melanoma; SK-MEL-5 melanoma; SK-OV-3 ovarian; UO-31 renal; DU-145 prostate; MDA-MB-435.
Holding throughout (assay): DTP human tumour cell line panel, 48 h

Consider `Cc1c(C(=O)CC(=O)C(=O)Nc2ccc(Cl)cc2)[n+](=O)c2ccccc2n1[O-]`, for which the concentration for total growth inhibition (TGI) in the assay on A498 renal, with MOLT-4 leukemia, in the assay on NCI-H23 lung, with OVCAR-4 ovarian, in the assay on SK-MEL-2 melanoma and with SK-MEL-5 melanoma was greater than 100 µM each time. In addition, the TGI with SK-OV-3 ovarian and in the assay on UO-31 renal was greater than 100 µM each time.
As for `COc1ccc(/C(=N\O)c2cc(C)c(OC)c(C)c2)cc1O`, the GI50 (as a rule, the concentration that inhibits growth by half) in the assay with DU-145 prostate is 0.0349 µM; with MDA-MB-435, less than 0.01 µM; in the assay on MOLT-4 leukemia it was 0.052 µM; in the assay on NCI-H23 lung it was 0.0314 µM; with OVCAR-4 ovarian, 0.0279 µM; in the assay with SK-MEL-2 melanoma, 0.0328 µM. Also, the 50% growth inhibitory concentration (GI50) in the assay with SK-MEL-5 melanoma is less than 0.01 µM; in the assay with SK-OV-3 ovarian, 0.0166 µM; in the assay on UO-31 renal, 0.0709 µM. Also, the TGI – broadly, the concentration giving total growth inhibition – is greater than 100 µM with DU-145 prostate; greater than 100 µM with MOLT-4 leukemia; greater than 100 µM with NCI-H23 lung; greater than 100 µM with OVCAR-4 ovarian; greater than 100 µM in the assay with SK-MEL-2 melanoma; 0.068 µM with SK-MEL-5 melanoma. Besides, the TGI in the assay with SK-OV-3 ovarian and with UO-31 renal was greater than 100 µM in each case.
Turning to `Cc1ccc(NC(=O)C(=O)CC(=O)c2c(C)n([O-])c3ccccc3[n+]2=O)cc1`, the TGI in the assay on A498 renal is greater than 100 µM; in the assay with MOLT-4 leukemia, 52.8 µM; in the assay with NCI-H23 lung, 56.6 µM; in the assay with OVCAR-4 ovarian, 96.3 µM; in the assay with SK-MEL-2 melanoma it was 53 µM; in the assay with SK-MEL-5 melanoma it was 78.2 µM. Moreover, the total growth inhibition concentration (TGI) in the assay on SK-OV-3 ovarian and in the assay on UO-31 renal was greater than 100 µM each time.
With `COc1ccc(S(=O)(=O)N/N=C/c2cc(I)cc([N+](=O)[O-])c2O)cc1OC`, the TGI in the assay on A498 renal was greater than 100 µM; with MOLT-4 leukemia, 64.8 µM; with OVCAR-4 ovarian, 70.3 µM; with SK-MEL-2 melanoma it was 45.6 µM; in the assay on SK-MEL-5 melanoma, 38.3 µM; in the assay on SK-OV-3 ovarian, 92.2 µM. Moreover, the TGI with UO-31 renal turned out to be 53.4 µM.
Take `COc1ccccc1C1c2cc3c(cc2OC(O)(CO)C1C(=O)O)OCO3` (stereo not given) (tested in a mixture with another compound): the total growth inhibition concentration (TGI) with A498 renal, with MOLT-4 leukemia, with NCI-H23 lung, in the assay with OVCAR-4 ovarian, in the assay with SK-MEL-2 melanoma and in the assay on SK-MEL-5 melanoma was greater than 100 µM each time. Besides, the TGI with SK-OV-3 ovarian and in the assay on UO-31 renal was greater than 100 µM throughout.
In the case of `COc1ccc(CC(=O)NCCc2ccc(OC)c(OC)c2)cc1Br`, the TGI in the assay on A498 renal, with MOLT-4 leukemia, in the assay on NCI-H23 lung, in the assay with OVCAR-4 ovarian, with SK-MEL-2 melanoma and in the assay with SK-OV-3 ovarian was greater than 100 µM each time. The molecule also gave a TGI in the assay on UO-31 renal greater than 100 µM.
Take `Oc1ccccc1C=Nc1nc(SCc2ccccc2)nc2[nH]ncc12`: the GI50 in the assay on DU-145 prostate is greater than 100 µM; with MDA-MB-435 it was 35.8 µM; with MOLT-4 leukemia it was 24.8 µM; in the assay on NCI-H23 lung, 61.2 µM; in the assay with OVCAR-4 ovarian, greater than 100 µM; in the assay with SK-MEL-2 melanoma it was greater than 100 µM. For the same molecule, the GI50 is 11.9 µM with SK-MEL-5 melanoma, greater than 100 µM in the assay on SK-OV-3 ovarian and 94.8 µM with UO-31 renal. Besides, the TGI with DU-145 prostate, with MDA-MB-435, in the assay with MOLT-4 leukemia, in the assay on NCI-H23 lung, in the assay with OVCAR-4 ovarian and in the assay on SK-MEL-2 melanoma was greater than 100 µM each time. In addition, the results for the TGI with SK-MEL-5 melanoma, with SK-OV-3 ovarian and with UO-31 renal were 26.3 µM, greater than 100 µM and greater than 100 µM, respectively.
Take `CN1CC[C@]2(C)c3cc(O)ccc3CC3CCCC1C32C` (stereo not given in full): the TGI in the assay on A498 renal, with MOLT-4 leukemia, in the assay with NCI-H23 lung, in the assay on SK-MEL-5 melanoma, in the assay with SK-OV-3 ovarian and in the assay on UO-31 renal was greater than 100 µM throughout.
Take `C=C1C(=O)OC2C=C(CCC(C)=O)C(C)C(OC(C)=O)CC12` (stereo not given): the TGI is 30.1 µM in the assay on A498 renal; 34.1 µM in the assay with MOLT-4 leukemia; 27.7 µM in the assay on OVCAR-4 ovarian; 27.9 µM in the assay with SK-MEL-2 melanoma; 26.6 µM in the assay with UO-31 renal.
As for `COc1ccc(S(=O)(=O)Nc2cc(/C=C\c3cc(OC)c(OC)c(OC)c3)ccc2OC)cc1`, the GI50 in the assay on A498 renal was 0.0357 µM; in the assay on DU-145 prostate it was 0.341 µM; with MOLT-4 leukemia, 0.388 µM; in the assay with NCI-H23 lung, 0.48 µM; with OVCAR-4 ovarian, 0.581 µM; in the assay on SK-MEL-2 melanoma, 0.0803 µM. Further, the GI50 with SK-MEL-5 melanoma was 0.0488 µM; in the assay with SK-OV-3 ovarian, 0.0963 µM; in the assay on UO-31 renal it was 0.131 µM. The TGI in the assay on A498 renal is 0.382 µM; in the assay with DU-145 prostate, greater than 100 µM; in the assay on MOLT-4 leukemia, greater than 100 µM; in the assay with NCI-H23 lung it was greater than 100 µM; in the assay with OVCAR-4 ovarian, greater than 100 µM; in the assay on SK-MEL-2 melanoma, 93 µM. In addition, the TGI with SK-MEL-5 melanoma is 0.778 µM; in the assay on SK-OV-3 ovarian, 38.3 µM; with UO-31 renal, 7.48 µM.
On to `O=C(c1ccccc1)C(Br)C(Br)c1cccc([N+](=O)[O-])c1` (stereo not given), for which the GI50 in the assay with DU-145 prostate was 2.48 µM; with MDA-MB-435, 2.52 µM; with MOLT-4 leukemia it was 2.09 µM; with NCI-H23 lung, 2.25 µM; in the assay with OVCAR-4 ovarian, 1.49 µM; in the assay with SK-MEL-2 melanoma it was 3.03 µM. For the same molecule, the GI50 was 2.89 µM in the assay with SK-MEL-5 melanoma, 11 µM in the assay on SK-OV-3 ovarian and 1.68 µM in the assay on UO-31 renal. Further, the TGI with DU-145 prostate was determined as 6.33 µM; with MDA-MB-435 it was 7.19 µM; in the assay on MOLT-4 leukemia it was 5.39 µM; with NCI-H23 lung, 6.45 µM; in the assay with OVCAR-4 ovarian, 2.81 µM; with SK-MEL-2 melanoma it was 8.48 µM. The values for the total growth inhibition concentration (TGI) in the assay with SK-MEL-5 melanoma, with SK-OV-3 ovarian and in the assay on UO-31 renal were 10.8 µM, 22.9 µM and 3.14 µM, respectively.
In the case of `CN(C)CCNC(=O)c1cccc2[nH]c(-c3cccnc3)nc12`, the concentration for total growth inhibition (TGI) was 30.6 µM in the assay with A498 renal; greater than 100 µM with MOLT-4 leukemia; 44.9 µM in the assay on NCI-H23 lung; 88.9 µM with OVCAR-4 ovarian; 62.8 µM in the assay with SK-MEL-2 melanoma; 30.8 µM in the assay on SK-MEL-5 melanoma. For the same molecule, the values for the concentration for total growth inhibition (TGI) in the assay with SK-OV-3 ovarian and in the assay on UO-31 renal were 80.3 µM and 39.5 µM, respectively.
`O=[N+]([O-])c1cc(C2SCc3nc4ccccc4n32)ccc1Cl` (stereo not given): the concentration for total growth inhibition (TGI) in the assay with A498 renal is 69.6 µM; in the assay with MOLT-4 leukemia, greater than 100 µM; with NCI-H23 lung, 78.1 µM; in the assay with SK-MEL-2 melanoma it was 50.9 µM; in the assay on SK-MEL-5 melanoma, 28.3 µM; in the assay on SK-OV-3 ovarian, 66.2 µM. For the same molecule, in the assay with UO-31 renal, the concentration for total growth inhibition (TGI) turned out to be 58.6 µM.
